Reference: publication PMC4133811 (BMB Reports, 2012)

Columns and labels:
Assay in all cases: NADH oxidation at […] nm, reductive amination of 2-oxoglutarate
Format in all cases: biochemical
[1] = target: hGDH2 (human glutamate dehydrogenase isozyme 2) (Homo sapiens, UniProt P49448, C112A)
[2] = target: hGDH2 (human glutamate dehydrogenase isozyme 2) (Homo sapiens, UniProt P49448, C172A)
[3] = target: hGDH2 (human glutamate dehydrogenase isozyme 2) (Homo sapiens, UniProt P49448, C327A)
[4] = target: hGDH2 (human glutamate dehydrogenase isozyme 2) (Homo sapiens, UniProt P49448, C254A)
[5] = target: hGDH2 (human glutamate dehydrogenase isozyme 2) (Homo sapiens, UniProt P49448)
[6] = target: hGDH2 (human glutamate dehydrogenase isozyme 2) (Homo sapiens, UniProt P49448, C146A)
hGDH2 (human glutamate dehydrogenase isozyme 2) (Homo sapiens, UniProt P49448, C146A), sequence (P49448 54-558 C146A): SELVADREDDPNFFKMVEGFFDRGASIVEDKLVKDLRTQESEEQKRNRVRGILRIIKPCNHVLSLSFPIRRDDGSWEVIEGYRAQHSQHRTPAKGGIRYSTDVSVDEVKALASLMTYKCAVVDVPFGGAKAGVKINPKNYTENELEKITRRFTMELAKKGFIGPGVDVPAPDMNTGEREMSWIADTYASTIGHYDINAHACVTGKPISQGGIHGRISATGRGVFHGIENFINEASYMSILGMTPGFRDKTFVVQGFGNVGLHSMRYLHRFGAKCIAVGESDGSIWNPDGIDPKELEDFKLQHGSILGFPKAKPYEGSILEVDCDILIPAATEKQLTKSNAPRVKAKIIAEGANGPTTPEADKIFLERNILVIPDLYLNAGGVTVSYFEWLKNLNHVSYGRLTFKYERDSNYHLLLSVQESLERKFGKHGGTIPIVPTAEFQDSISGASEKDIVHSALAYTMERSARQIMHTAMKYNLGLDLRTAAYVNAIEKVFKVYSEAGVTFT

hGDH2 (human glutamate dehydrogenase isozyme 2) (Homo sapiens, UniProt P49448, C254A), sequence (P49448 54-558 C254A): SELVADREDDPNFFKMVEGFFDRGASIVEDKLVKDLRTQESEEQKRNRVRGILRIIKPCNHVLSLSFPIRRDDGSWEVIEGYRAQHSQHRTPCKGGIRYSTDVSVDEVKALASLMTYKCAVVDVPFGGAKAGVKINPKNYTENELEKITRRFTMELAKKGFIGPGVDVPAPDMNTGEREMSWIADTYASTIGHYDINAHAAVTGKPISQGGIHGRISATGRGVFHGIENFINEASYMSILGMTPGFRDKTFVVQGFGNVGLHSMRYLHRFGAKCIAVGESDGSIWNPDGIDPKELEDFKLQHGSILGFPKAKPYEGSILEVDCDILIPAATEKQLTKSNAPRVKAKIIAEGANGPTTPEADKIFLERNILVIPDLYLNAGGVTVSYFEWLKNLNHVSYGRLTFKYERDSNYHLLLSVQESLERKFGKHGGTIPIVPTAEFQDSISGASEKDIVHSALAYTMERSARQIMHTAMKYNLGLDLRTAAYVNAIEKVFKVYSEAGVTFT
hGDH2 (human glutamate dehydrogenase isozyme 2) (Homo sapiens, UniProt P49448), sequence (P49448 54-558): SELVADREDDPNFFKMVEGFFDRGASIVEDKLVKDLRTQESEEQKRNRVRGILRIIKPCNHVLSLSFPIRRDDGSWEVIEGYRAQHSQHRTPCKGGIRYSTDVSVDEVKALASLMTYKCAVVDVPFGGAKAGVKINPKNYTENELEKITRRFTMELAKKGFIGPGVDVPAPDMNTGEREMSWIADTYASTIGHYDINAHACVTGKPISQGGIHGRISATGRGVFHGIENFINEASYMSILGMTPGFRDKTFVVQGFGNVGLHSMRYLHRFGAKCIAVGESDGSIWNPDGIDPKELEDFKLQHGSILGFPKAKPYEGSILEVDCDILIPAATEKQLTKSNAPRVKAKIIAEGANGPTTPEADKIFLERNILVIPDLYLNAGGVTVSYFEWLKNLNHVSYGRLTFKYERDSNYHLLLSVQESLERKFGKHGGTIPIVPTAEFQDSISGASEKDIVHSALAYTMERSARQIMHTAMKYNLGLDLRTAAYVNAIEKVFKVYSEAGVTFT
hGDH2 (human glutamate dehydrogenase isozyme 2) (Homo sapiens, UniProt P49448, C112A), sequence (P49448 54-558 C112A): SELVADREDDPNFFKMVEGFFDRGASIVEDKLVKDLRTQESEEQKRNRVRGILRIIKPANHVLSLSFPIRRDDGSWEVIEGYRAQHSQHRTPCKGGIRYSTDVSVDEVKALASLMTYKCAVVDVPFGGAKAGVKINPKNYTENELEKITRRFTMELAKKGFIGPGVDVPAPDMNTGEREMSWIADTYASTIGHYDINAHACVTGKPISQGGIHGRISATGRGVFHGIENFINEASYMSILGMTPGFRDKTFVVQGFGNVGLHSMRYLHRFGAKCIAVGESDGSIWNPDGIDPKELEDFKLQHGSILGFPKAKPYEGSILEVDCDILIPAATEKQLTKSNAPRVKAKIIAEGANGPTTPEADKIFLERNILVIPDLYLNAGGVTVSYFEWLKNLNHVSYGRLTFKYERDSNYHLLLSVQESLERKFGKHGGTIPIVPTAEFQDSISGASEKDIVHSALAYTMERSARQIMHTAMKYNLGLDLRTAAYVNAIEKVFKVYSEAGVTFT
hGDH2 (human glutamate dehydrogenase isozyme 2) (Homo sapiens, UniProt P49448, C327A), sequence (P49448 54-558 C327A): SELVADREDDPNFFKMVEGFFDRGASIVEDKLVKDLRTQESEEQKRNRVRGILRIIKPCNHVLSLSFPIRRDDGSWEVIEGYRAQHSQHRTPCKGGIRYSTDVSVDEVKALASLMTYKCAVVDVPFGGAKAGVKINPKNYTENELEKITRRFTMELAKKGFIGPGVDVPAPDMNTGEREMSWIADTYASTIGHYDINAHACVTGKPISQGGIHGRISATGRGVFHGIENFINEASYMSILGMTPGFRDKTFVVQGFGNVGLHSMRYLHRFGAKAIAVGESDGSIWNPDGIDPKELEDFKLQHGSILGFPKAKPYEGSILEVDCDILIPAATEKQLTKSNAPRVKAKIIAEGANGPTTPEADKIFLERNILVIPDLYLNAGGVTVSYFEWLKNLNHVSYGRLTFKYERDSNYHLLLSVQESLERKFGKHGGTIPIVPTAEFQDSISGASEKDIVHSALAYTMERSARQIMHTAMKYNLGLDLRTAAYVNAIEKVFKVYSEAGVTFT
hGDH2 (human glutamate dehydrogenase isozyme 2) (Homo sapiens, UniProt P49448, C172A), sequence (P49448 54-558 C172A): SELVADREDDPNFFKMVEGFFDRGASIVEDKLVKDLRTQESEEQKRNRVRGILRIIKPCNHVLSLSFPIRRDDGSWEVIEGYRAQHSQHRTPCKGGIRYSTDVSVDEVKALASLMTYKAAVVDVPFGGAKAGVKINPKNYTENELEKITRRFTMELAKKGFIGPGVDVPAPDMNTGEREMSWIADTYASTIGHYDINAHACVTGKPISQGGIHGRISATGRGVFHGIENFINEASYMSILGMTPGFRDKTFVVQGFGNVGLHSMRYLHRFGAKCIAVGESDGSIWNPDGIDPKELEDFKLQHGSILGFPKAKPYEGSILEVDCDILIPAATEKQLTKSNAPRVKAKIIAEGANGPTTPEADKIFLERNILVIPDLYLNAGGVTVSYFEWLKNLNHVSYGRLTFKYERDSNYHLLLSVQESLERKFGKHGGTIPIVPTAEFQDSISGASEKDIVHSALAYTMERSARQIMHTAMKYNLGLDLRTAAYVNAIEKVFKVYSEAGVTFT

IC50 [1]: 2.15 µM
IC50 [2]: 1.98 µM
IC50 [3]: 2.31 µM
IC50 [4]: 2.47 µM
IC50 [5]: 1.82 µM
IC50 [6]: 2.6 µM
SMILES: CCCCCCCCCCCCCCCC(=O)SCCNC(=O)CCNC(=O)[C@H](O)C(C)(C)COP(=O)(O)OP(=O)(O)OC[C@H]1O[C@@H](n2cnc3c(N)ncnc32)[C@H](O)[C@@H]1OP(=O)(O)O [palmitoyl-CoA]
